Test [1] deals with ER. The conditions noted are these: undefined if not mentioned; cited from earlier work.
In test [2] the test system is CVX1 human cervical cancer cells (ERα-positive). Put plainly: Subcutaneous CVX1 tumors in nude mice. It counts as in vivo. Conditions: estrogen-treated nude mice, fulvestrant 7.5 mg s.c. twice a week, two-week treatment period.
The test system of test [3] is CaSki cervical cancer cell line (ERα-negative). Nature of the test: Subcutaneous CaSki tumors in nude mice. The test is classed as in vivo, human. Conditions: estrogen-treated nude mice, with fulvestrant 7.5 mg s.c. twice a week.
Test [4] has as its system nontransgenic female mice. Nature of the test: Uterine wet weight after one week of fulvestrant (dose finding). Conditions: two injections day 0 and day 3, uteri weighed day 7, normalized to body weight.
Source text: The indicated dose was given to nontransgenic female mice by two injections at day 0 and day 3, and uteri were harvested and weighed at day 7. Uterine wet weight was normalized to body weight.
For test [5], the system named is K14E6/K14E7 double transgenic mice. Nature of the test: Prevention of cervical/vaginal cancer in E2-treated K14E6/K14E7 mice (preventive fulvestrant).
Procedure: Mice. […] Experimental mice were generated by crossing K14E7 hemizygote and K14E6 homozygote mice. Female progenies were genotyped by PCR and a slow-releasing 17β-estradiol (E2) tablet (0.05 mg/60 days) (Innovative Research of America) was inserted subcutaneously under the dorsal skin every two months beginning at 4-6 weeks of age. After 6-month treatment with E2, one group of mice was sacrificed immediately to evaluate cancer phenotypes (6M E2 group), another group was maintained for another month without further treatment (6M E2+1M without fulvestrant group), and the third group was treated with fulvestrant for a month (6M E2+1M with fulvestrant group).
Fulvestrant treatment. Faslodex (50 mg/ml, human formulation of intramuscular injection of fulvestrant) was purchased from Astra Zeneca. Mice were subcutaneously injected with 0.15 ml (equivalent to 7.5 mg of fulvestrant) of Faslodex twice a week for a month (total of 9 injections).
Test [6] shares this test system. Nature of the test: Treatment of pre-existing cervical/vaginal cancer and dysplasia in estrogen-treated K14E6/K14E7 mice.
Procedure: Experimental mice were generated by crossing K14E7 hemizygote and K14E6 homozygote mice. Female progenies were genotyped by PCR and a slow-releasing 17β-estradiol (E2) tablet (0.05 mg/60 days) (Innovative Research of America) was inserted subcutaneously under the dorsal skin every two months beginning at 4-6 weeks of age. After 6-month treatment with E2, one group of mice was sacrificed immediately to evaluate cancer phenotypes (6M E2 group), another group was maintained for another month without further treatment (6M E2+1M without fulvestrant group), and the third group was treated with fulvestrant for a month (6M E2+1M with fulvestrant group).
Faslodex (50 mg/ml, human formulation of intramuscular injection of fulvestrant) was purchased from Astra Zeneca. Mice were subcutaneously injected with 0.15 ml (equivalent to 7.5 mg of fulvestrant) of Faslodex twice a week for a month (total of 9 injections).
Mice were subsequently injected with fulvestrant as described in Materials and Methods. Reproductive tracts were harvested, fixed in para-formaldehyde (PFA), and embedded in paraffin. Every tenth 5 μM section was stained with H&E and histopathologically scored to identify the worst grade of cervical/vaginal disease present in each animal. […] EVISTA® tablets were purchased from Eli Lilly and Company, which are human formulation of raloxifene (60 mg/tablet). Tablets were resuspended in phosphate buffered saline at a final concentration of 10 mg/ml. K14E6/K14E7 double transgenic mice were treated with E2 for 6 months and subsequently with raloxifene for a month by intraperitoneally injecting them with 0.15 ml of raloxifene suspension (equivalent to 1.5 mg) 5 days a week.
Setting [7] is: 6M E2 + preventive fulvestrant (one month at the three-month time point), six-month endpoint.
Setting [8] is: 6M E2 + preventive fulvestrant, six-month endpoint.
The mark [9] stands for this setting: 6M E2 + 1M fulvestrant 7.5 mg s.c. twice a week, 13 mice.
The mark [10] stands for this setting: 6M estrogen then fulvestrant for two weeks.
[11] abbreviates: 6M E2 + 1M raloxifene 1.5 mg i.p. 5 days a week.

Data on twelve compounds can be found in patent publication US9889101B2, “Therapeutic treatment of cancer and dysplasia of the cervix or vagina using estrogen antagonists” (Wisconsin Alumni Research Foundation, priority 2009, dated 2018).

SMILES strings stand for the structures.

Regarding `COc1ccc(-c2sc3cc(O)ccc3c2Oc2ccc(OCCN3CCCCC3)cc2)cc1` [Arzoxifene], the “Effect in cervix, vagina and endometrium” value in test [1] is listed as “antagonist in endometrium”.

Consider `CC/C(=C(/c1ccc(OCCN(C)C)cc1)c1cccc(O)c1)c1ccccc1` [Droloxifene], for which the “Effect in cervix, vagina and endometrium” value in test [1] is given as “agonist in endometrium”.

Consider `CC1=C(c2ccc(OC(=O)C(C)(C)C)cc2)[C@H](c2ccc(OCCN3CCCCC3)cc2)Oc2cc(OC(=O)C(C)(C)C)ccc21` [EM-800], for which the “Effect in cervix, vagina and endometrium” value in test [1] is listed as “antagonist in endometrium”.

As for `CC/C(=C(\c1ccc(I)cc1)c1ccc(OCCN2CCCC2)cc1)c1ccccc1` [Idoxifene], in test [1], the “Effect in cervix, vagina and endometrium” value was “agonist in endometrium”.

Turning to `Oc1ccc2c(c1)CC[C@H](c1ccccc1)[C@@H]2c1ccc(OCCN2CCCC2)cc1` [Lasofoxifene], the “Effect in cervix, vagina and endometrium” value in test [1] is “neutral in endometrium”.

Turning to `COc1ccc2c(c1)OC(C)(C)[C@@H](c1ccccc1)[C@@H]2c1ccc(OCCN2CCCC2)cc1` [Levormeloxifene], in test [1], the “Effect in cervix, vagina and endometrium” value is “agonist in endometrium”.

With `COc1ccc2c(c1)OC(C)(C)C(c1ccccc1)C2c1ccc(OCCN2CCCC2)cc1` (centres unmarked) [Ormeloxifene], the “Effect in cervix, vagina and endometrium” value in test [1] was “antagonist in endometrium”.

With `Cc1c(-c2ccc(O)cc2)n(Cc2ccc(OCCN3CCCCC3)cc2)c2ccc(O)cc12` [Pipendoxifene], the “Effect in cervix, vagina and endometrium” value in test [1] is “antagonist in endometrium”.

Take `CC/C(=C(\c1ccccc1)c1ccc(OCCN(C)C)cc1)c1ccccc1` [Tamoxifen]: in test [1], the “Effect in cervix, vagina and endometrium” value is “agonist in cervix, vagina,”.

`CN(C)CCOc1ccc(/C(=C(/CCCl)c2ccccc2)c2ccccc2)cc1` [Toremifene]: the “Effect in cervix, vagina and endometrium” value in test [1] was “agonist in endometrium”.

Take `C[C@]12CC[C@@H]3c4ccc(O)cc4C[C@@H](CCCCCCCCC[S+]([O-])CCCC(F)(F)C(F)(F)F)[C@H]3[C@@H]1CC[C@@H]2O` (some centres unmarked) [fulvestrant]: the CVX1 tumor growth entry in test [2] is recorded as “did not grow at all”. The CaSki tumor growth in test [3] was 4.7 fold. Further, in test [1], the “Effect in cervix, vagina and endometrium” value was “antagonist in cervix, vagina,”. In addition, in test [4] (fulvestrant 10 mg/week), the “decrease in uterine wet weight” value came out at 50%. Besides, the “reduction in uterine wet weight” value in test [4] (fulvestrant 15 mg/week) stood at 70%. Moreover, in test [5] (setting [7]), the “# mice with no dysplasia or cancer, Cervix” value is on record as 6 and the “# mice with no dysplasia or cancer, Vagina” value was found to be 6. Moreover, in test [5] (setting [8]), the “# mice w/ dysplasia only, CIN1” value is recorded as 0 (0); the “# mice w/ dysplasia only, CIN2” value was 0 (0); the “# mice w/ dysplasia only, CIN3” value is reported as 0 (0); the “# mice w/ dysplasia only, VIN1” value is recorded as 0 (0). In addition, in test [5] (setting [8]), the “# mice w/ dysplasia only, VIN2” value was 0 (0); the “# mice w/ dysplasia only, VIN3” value was 0 (0); the “# mice w/cancer and dysplasia, Cervix” value is 0 (0); the “# mice w/cancer and dysplasia, Vagina” value is 0 (0). In test [5] (setting [8]), the “mice w/cancer and dysplasia (%), Cervix” value is 0 (0) %; the “mice w/cancer and dysplasia (%), Vagina” value is given as 0 (0) %. Besides, the “cervical disease at the six-month endpoint” value in test [5] (fulvestrant for one month at the three-month time point of E2 treatment) is given as “neither CIN nor cervical cancer”. In test [6] (setting [9]), the “number of mice with CIN1 as worst state (cervix)” value was 0 (0), the “number of mice with CIN2 as worst state (cervix)” value is 0 (0), the “number of mice with CIN3 as worst state (cervix)” value is given as 0 (0) and the “number of mice with VIN1 as worst state (vagina)” value was 0 (0). In addition, in test [6] (setting [9]), the “number of mice with VIN2 as worst state (vagina)” value is listed as 0 (0), the “number of mice with VIN3 as worst state (vagina)” value is reported as 0 (0), the “number of mice with cervical cancer” value is listed as 1 (1) and the “number of mice with no dysplasia (worst state of disease)” value was determined as 11. Also, the “number of mice with vaginal cancer” value in test [6] (setting [9]) was 1 (1). Further, in test [6] (6M E2 + 1M with fulvestrant), the “Average size of the largest tumor” value is 0.02 ± 0.05^ mm^2; the “Tumor multiplicity, Cervix” value was determined as 0.2 ± 0.5; the “Tumor multiplicity, Vagina” value stood at 0.1 ± 0.3. The “dysplastic lesions (CIN and VIN) in lower reproductive tract” value in test [6] (6M estrogen then fulvestrant for 1 month) is “absence of any grade of dysplastic lesions”. Moreover, in test [6] (setting [10]), the “cancers in the lower reproductive tracts” value was “still had cancers” and the “dysplastic lesions in lower reproductive tract” value is “absent”. Besides, the “thickness of lower reproductive tract epithelia” value in test [6] (fulvestrant-treated mice) was 2-3 layers of cells. For the same compound, the “mice in which cancers persisted after one-month fulvestrant” value in test [6] (of 13 mice, one cervical, one vaginal cancer) is recorded as 2.

`O=C(c1ccc(OCCN2CCCCC2)cc1)c1c(-c2ccc(O)cc2)sc2cc(O)ccc12` [raloxifene]: the “Effect in cervix, vagina and endometrium” value in test [1] was “neutral in endometrium”. In addition, in test [6] (setting [11]), the “# mice w/ dysplasia only, CIN1” value was 0 (0); the “# mice w/ dysplasia only, CIN2” value is recorded as 0 (0); the “# mice w/ dysplasia only, CIN3” value was 0; the “# mice w/ dysplasia only, VIN1” value is listed as 0 (0). Besides, in test [6] (setting [11]), the “# mice w/ dysplasia only, VIN2” value is reported as 0 (0); the “# mice w/ dysplasia only, VIN3” value came out at 1; the “# mice w/cancer and dysplasia, Cervix” value was 0 (0); the “# mice w/cancer and dysplasia, Vagina” value is 0 (0). Also, in test [6] (setting [11]), the “# mice with no dysplasia or cancer, Cervix” value came out at 7; the “# mice with no dysplasia or cancer, Vagina” value was determined as 6; the “mice w/cancer and dysplasia (%), Cervix” value is reported as 0 (0) %; the “mice w/cancer and dysplasia (%), Vagina” value is 0 (0) %. The “regression of cervical and vaginal disease including cancers” value in test [6] (6M E2 then raloxifene 1.5 mg i.p. 5 days a week for a month) is “complete regression”.
